Source: patent US20120264949A1, “Method of Labeling Dopamine D2 Receptor Using Radiosynthesized Ligand of Iodine-123-Epidepride” (ATOMIC ENERGY COUNCIL-INSTITUTE OF NUCLEAR ENERGY RESEARCH, priority 2011, published 2012)
pKd: −log10 of the molar value.

Experiments:
[1] = Lipophilicity, octanol/PBS partition with gamma-counter; assay type: physicochemical
Protocol: For analyzing lipophilicity of the I-123-Epidepride, a solution of phosphate buffer saline (PBS) is used with lipophilic octanol. After 50 μl of I-123-Epidepride, 0.5 ml of PBS and 0.5 ml of octanol are mixed, a diluted octanol solution is obtained with an aqueous solution which has an equal weight as the octanol solution and then is processed with a gamma-counter. Therein, the lipophilicity of the I-123-Epidepride is expressed as a value of log P and log P is obtained by the following formula: Log P=Log {(Decay corrected activity)organic layer×10/(Decay corrected activity)aqueous layer}.
FIG. 6 and FIG. 7 are views showing lipophilicity and labeling results. […] Besides, the labeling method according to the present disclosure obtains 20 mCi each time for three times with an average radiochemistry purity of 99.55±0.8% and an average yield of 74.83±2.4% (shown in FIG. 7).

[2] = Stability after standing 24 hours, radiochemistry purity measured; assay type: physicochemical; settings: stayed still for 24 hours
Protocol: FIG. 8A and FIG. 8B are views showing stability at 0 hour and 24 hour. As shown in the figures, after the I-123-Epidepride is stayed still for 24 hours, its radiochemistry purity is measured. As shown by the liquid peaks, [32], the stability is higher than 90%.

[3] = target: T1, dopamine D2 receptors (Mus musculus, UniProt P61168); test: microSPECT/microCT imaging of mouse brain; assay type: in vivo; settings: 5 mCi injected, striatum, thalamus and midbrain
T1 construct: from tissue; host or cells: mouse brain in vivo (striatum, thalamus, midbrain)
T1 sequence (P61168 whole entry): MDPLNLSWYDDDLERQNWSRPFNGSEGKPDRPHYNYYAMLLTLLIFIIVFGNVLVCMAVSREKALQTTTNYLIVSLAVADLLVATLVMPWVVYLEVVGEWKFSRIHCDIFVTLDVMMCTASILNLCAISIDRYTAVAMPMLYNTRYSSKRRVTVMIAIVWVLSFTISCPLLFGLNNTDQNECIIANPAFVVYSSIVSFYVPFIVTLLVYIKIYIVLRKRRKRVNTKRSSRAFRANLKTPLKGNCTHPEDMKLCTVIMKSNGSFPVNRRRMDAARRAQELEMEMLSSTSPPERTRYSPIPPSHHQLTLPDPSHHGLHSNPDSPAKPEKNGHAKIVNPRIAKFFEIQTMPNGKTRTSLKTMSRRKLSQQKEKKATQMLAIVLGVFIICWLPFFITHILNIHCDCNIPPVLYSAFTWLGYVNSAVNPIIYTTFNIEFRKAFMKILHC
Protocol: FIG. 9 is a view showing a combined image of a mouse brain obtained through microSPECT and microCT. As shown in the figure, a combined image of a mouse brain is obtained through microSPECT and microCT, where 5 mCi of I-123-Epidepride is injected into the mouse brain.

[4] = target: dopamine D2 receptors (Homo sapiens, UniProt P14416); settings: imaging agent for dopamine D2 receptors; cited from earlier work
Sequence of dopamine D2 receptors (Homo sapiens, UniProt P14416) (P14416 whole entry): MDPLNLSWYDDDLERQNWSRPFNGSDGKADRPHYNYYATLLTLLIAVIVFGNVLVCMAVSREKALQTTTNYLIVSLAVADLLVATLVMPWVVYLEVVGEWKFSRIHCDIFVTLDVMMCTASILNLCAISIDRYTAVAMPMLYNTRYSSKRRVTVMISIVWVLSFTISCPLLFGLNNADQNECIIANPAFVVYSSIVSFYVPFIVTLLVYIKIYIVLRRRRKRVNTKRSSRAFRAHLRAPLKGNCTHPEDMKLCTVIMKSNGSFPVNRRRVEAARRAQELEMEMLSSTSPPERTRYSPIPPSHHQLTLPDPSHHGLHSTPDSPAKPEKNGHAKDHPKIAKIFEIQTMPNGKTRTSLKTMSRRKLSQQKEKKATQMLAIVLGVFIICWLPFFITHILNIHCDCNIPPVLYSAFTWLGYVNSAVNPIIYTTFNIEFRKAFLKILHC

## CCN1CCC[C@H]1CNC(=O)c1cc(I)cc(OC)c1OC [I-123-Epidepride]
[1]
  log P value: 1.76±0.04
[2]
  stability (radiochemistry purity after 24 hours): higher than 90%
[3]
  brain uptake in combined microSPECT/microCT image: obvious absorption is found in striatum [41], thalamus and midbrain [42]

## CCN1CCC[C@H]1CNC(=O)c1c(OC)ccc(I)c1O [IBZM]
[4]
  pKd: 9.37
